The text below walks through data of PMC3997752, “Molecular characterization of Plasmodium falciparum uracil-DNA glycosylase and its potential as a new anti-malarial drug target” (Malaria Journal, 2014).

The test system of one data set is human UDG. Further details: method as in PMID 8391260. The following applies: purified human HeLa UDG; cited from earlier work.
For the next data set, the target named is recombinant PfUDG (Plasmodium falciparum, UniProt Q8ILU6, P157T). In words: Inhibition of recombinant PfUDG activity (32P-labelled oligo-U glycosylase assay). It counts as biochemical. The conditions noted are these: for Inhibitory effect of UGI on recombinant PfUDG: 1:1 molar ratio of PfUDG and UGI. On the procedure: (§1) The UDG activity assay (20 μl) consisted of standard reaction buffer containing 20 mM Tris–HCl pH 8.0, 1 mM DTT, 1 mM EDTA, 50 mM NaCl, 100 μg/ml BSA, 10 pmol ^32P-labelled oligo-U, and 20 ng of PfUDG at 37°C for 20 min. The glycosylase activity was stopped by heating at 100°C for 1 min, the resulting apurinic/apyrimidinic site (AP site) was incised by hot alkaline treatment with 0.1 M NaOH (final concentration) at 95°C for 10 min, and the reaction was neutralized with 0.1 M HCl (final concentration). The AP lyase activity assay of PfUDG was examined under the same condition as UDG activity assay except without hot alkaline treatment. Reaction products were analysed on 8 M urea-16% denaturing PAGE and exposed to X-ray film for autoradiography for visualization. The radioactive intensity of sliced substrate and product bands from the gel were measured in a 1450 MicroBeta® Trilux Liquid Scintillation Counter (Perkin Elmer) as counts per minute (cpm). The amounts of substrate and product (pmol) were determined from radioactive intensity. One unit of activity is defined as the amount of PfUDG required for releasing 1 pmol of uracil in 1 min at 37°C in standard reaction buffer (20 mM Tris–HCl pH 8.0, 50 mM NaCl, 1 mM EDTA, 1 mM DTT, and 100 μg/ml BSA) with ^32P-labelled single stranded oligo-U substrate.
Chain of recombinant PfUDG (Q8ILU6 whole entry P157T): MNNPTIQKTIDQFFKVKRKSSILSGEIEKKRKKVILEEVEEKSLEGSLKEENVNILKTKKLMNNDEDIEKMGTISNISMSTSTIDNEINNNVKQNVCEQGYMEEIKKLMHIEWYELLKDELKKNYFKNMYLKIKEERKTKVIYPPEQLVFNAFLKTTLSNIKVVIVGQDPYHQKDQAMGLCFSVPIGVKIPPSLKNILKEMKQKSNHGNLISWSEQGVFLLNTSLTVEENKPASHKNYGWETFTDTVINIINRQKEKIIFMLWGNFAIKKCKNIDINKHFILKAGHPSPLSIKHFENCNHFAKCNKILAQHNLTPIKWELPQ
Two types of UDG inhibitors, UGI protein and synthetic uracil-derived compounds, were tested for their inhibitory effects on PfUDG. UGI protein of B. subtilis bacteriophage PBS1 (New England BioLabs) was used against native and recombinant PfUDG with 10 pmol ^32P-labelled single stranded oligo-U in the standard reaction buffer at 37°C for 20 min. The synthetic uracil-derived compounds were also used at various concentrations (5–640 μM) with 20 ng of recombinant PfUDG and 10 pmol ^32P-labelled single stranded oligo-U in the standard reaction buffer at 37°C for 20 min. The same 0.4% (v/v final concentration) of DMSO was used as solvent control to determine its effects on enzyme activity. The dose–response curves of relative activities of PfUDG and various compound concentrations were generated, and half-maximal inhibitory concentration (IC50), the concentration of compound to inhibit enzyme activity by 50%, was obtained using SigmaPlot 12.0.

The next data set relates to P. falciparum K1 strain. In words: Inhibition of parasite growth in vitro, SYBR Green I based assay. It counts as cell-based. The following applies: Plasmodium falciparum, synchronized ring stage K1 strain. On the procedure:
The synchronized ring stage of P. falciparum K1 strain was prepared from mixed stage parasite culture by 5% D-sorbitol treatment. The ring stage parasite was then mixed with culture medium containing RPMI 1640 supplemented with 10% human serum. Various concentrations of each uracil-derived compound were tested at 2-fold serial dilutions in triplicate. Their inhibitory effects on parasite growth were determined by SYBR Green I based assay. The fluorescent intensity was measured by Varioskan Flash Multimode Reader (Thermo Scientific, Vantaa, Finland) with excitation and emission wavelengths of 485 and 535 nm, respectively. The percentage of fluorescent intensity at each compound concentration compared with negative control was indicative of the parasite growth. The dose–response curves of fluorescent intensity and compound concentrations were generated, and IC50, the concentration of compound to inhibit parasite growth by 50%, was obtained using SigmaPlot 12.0.

A short description of data set [1]: Cytotoxicity test, MTT colorimetric assay. The following applies: human, HepG2 cells. It counts as cell-based. As for the experimental part:
The uracil-derived compounds showing inhibitory effects on PfUDG were assayed for cytotoxicity to human hepatocyte carcinoma cell line ATCC HB 8665 (HepG2) by in vitro cytotoxicity test. The methylthiazol tetrazolium (MTT)-dye based colorimetric microtitration assay was used for detecting cell survival based on the metabolism of tetrazolium to formazan by viable cells. The OD of formazan was measured by a Molecular Devices Microplate Reader (Molecular Devices, CA, USA) at a wavelength of 570 nm. The OD570 represented the cell survival, and the percentage of cell survival at each compound concentration was determined by comparing with the OD570 of negative control lacking compounds. The dose–response curves of % cell survival, and compound concentrations and IC50 were obtained. IC50 representing the concentration of compounds providing 50% cell survival indicated the cytotoxicity of compounds.
Background: Tetrazolium dyes change colour on reduction, which living cells bring about.

Another data set has as its system HSV-1 UDG. Further details: method as in PMID 8391260. The conditions noted are these: HSV-1 UDG purified from HSV-1-infected HeLa cells; cited from earlier work.
The next data set relates to native PfUDG. The data set is described as follows: Inhibition of native PfUDG activity by UGI (32P-labelled oligo-U glycosylase assay). It counts as biochemical, Plasmodium falciparum. The conditions noted are these: 1:1 molar ratio of PfUDG and UGI. As for the experimental part: as §1, with “substrate. […]” for “substrate.”
The mark [2] stands for this setting: listed as uracil glycosylase inhibitor protein.

As usually defined, the IC50 is the concentration that inhibits the measured activity by half. For the molecule `CCCCCCCCc1ccc(Nc2cc(=O)[nH]c(=O)[nH]2)cc1` [6-(4-n-octylanilino)uracil, 6-(4-n-Octylanilino)uracil], the IC50 in the data set with human UDG was > 300 µM.
Regarding `O=c1cc(NNc2ccccc2)[nH]c(=O)[nH]1` [compound 2, 6-(Phenylhydrazino)uracil], the IC50 at recombinant PfUDG was determined as 77.5 µM; with P. falciparum K1 strain, 12.8 µM; in data set [1], 27.5 ± 4.58 µM.
`CCCCCCCc1ccc(Nc2cc(=O)[nH]c(=O)[nH]2)cc1` [compound 3, 6-(p-n-Heptylanilino)uracil]: the IC50 at recombinant PfUDG is > 400 µM; in the data set on P. falciparum K1 strain it was 5 µM; in the data set on HSV-1 UDG, 20 µM.
Take `Cc1ccc(Nc2cc(=O)[nH]c(=O)[nH]2)cc1` [compound 4, 6-(4-Methylanilino)uracil]: the IC50 on recombinant PfUDG was > 400 µM; in the data set with P. falciparum K1 strain it was 7.1 µM.
For the molecule `CCCc1ccc(Nc2cc(=O)[nH]c(=O)[nH]2)cc1` [compound 5, 6-(p-n-Propylanilino)uracil], the results for the IC50 on recombinant PfUDG and with P. falciparum K1 strain were > 400 µM and 7.9 µM, respectively.
In the same order, the values of `O=c1cc[nH]c(=O)[nH]1` [compound 6, Uracil] are > 400 µM and 10 µM.
In the case of `CCCCc1ccc(Nc2cc(=O)[nH]c(=O)[nH]2)cc1` [compound 7, 6-(p-n-Butylanilino)uracil], the results for the IC50 on recombinant PfUDG, in the data set with P. falciparum K1 strain and with HSV-1 UDG were > 400 µM, 10 µM and 150 µM, respectively.
In the case of `CCc1cc(Nc2cc(=O)n(CCCCO)c(=O)[nH]2)ccc1C` [compound 8, 3-(4-Hydroxybutyl)-6-(3-ethyl-4-methylanilino)uracil], the IC50 at recombinant PfUDG was > 400 µM; in the data set on P. falciparum K1 strain it was 10.2 µM.
For the molecule `CCCCCc1ccc(Nc2cc(=O)[nH]c(=O)[nH]2)cc1` [compound 9, 6-(p-n-Pentylanilino)uracil], the IC50 on recombinant PfUDG is > 400 µM; with P. falciparum K1 strain it was 10.5 µM; in the data set on HSV-1 UDG, 30 µM.
Consider `CC(C)CCc1ccc(Nc2cc(=O)[nH]c(=O)[nH]2)cc1` [compound 10, 6-(p-i-Pentylanilino)uracil], for which the IC50 at recombinant PfUDG is > 400 µM; in the data set with P. falciparum K1 strain it was 11 µM; in the data set on HSV-1 UDG, 140 µM.
On to `CC(C)c1ccc(Nc2cc(O)nc(O)n2)cc1` [compound 11, 6-(p-i-Propylanilino)uracil], for which the figures for the IC50 on recombinant PfUDG and with P. falciparum K1 strain were > 400 µM and 12.6 µM, respectively.
For the molecule `CC(C)Cc1ccc(Nc2cc(=O)[nH]c(=O)[nH]2)cc1` [compound 12, 6-(p-i-Butylanilino)uracil], the IC50 at recombinant PfUDG was > 400 µM; with P. falciparum K1 strain it was 16.5 µM.

B1: UGI: UGI protein of B. subtilis bacteriophage PBS1 (New England BioLabs), a well-known UDG inhibitor (protein, UniProt P14739 1-84, looked up)
Uracil-DNA glycosylase …: MTNLSDIIEKETGKQLVIQESILMLPEEVEEVIGNKPESDILVHTAYDESTDENVMLLTSDAPEYKPWALVIQDSNGENKIKML
As for B1, the “Inhibitory effect of UGI on recombinant PfUDG” value with recombinant PfUDG is recorded as “completely inhibited”; with recombinant PfUDG (setting [2]) it was “inhibited”. Besides, the “Inhibitory effect of UGI on native PfUDG” value is recorded as “completely inhibited” in the data set on native PfUDG and “inhibited” with native PfUDG (setting [2]).
